From patent US20240374563A1, “ANTICHOLINERGIC COMPOUNDS FOR USE IN TREATING NEUROMUSCULAR DISORDERS” (UNIVERSITY OF MONTRÉAL, priority 2022, published 2024) come the findings set out here.

The subject of the experiment is SOD1^G37R mice. As to the kind of experiment: Motor neuron counts in lumbar spinal cord sections (ChAT/NeuN). The experiment is classed as in vivo, mouse. To be noted: P520, treatment from disease onset, p<0.0001. The source says:
We prepared lumbar spinal cords sections as previously described[6] and labeled MNs with the cholinergic neuronal marker ChAT and the general neuronal nuclei marker NeuN to identify α-MNs. Neurons positive for both markers located in the ventral horn were counted as α-MNs.
Motor neuron counts: Mouse were perfused transcardially and lumbar spinal cord were subsequently dissected, cryoprotected in a 30% sucrose solution and frozen using dry ice. Floating lumbar spinal cord cryosections were processed as previously described. Spinal cords cryosections were double stained against Choline Acetyl-Transferase (ChAT: 1:100; Goat; Millipore, Canada; AB144P) and the neuronal marker Neuronal Nuclei (NeuN; 1:300; Mouse IgG1; Millipore; MAB377). ChAT and NeuN positive cells were identified as α-MNs[4]. A minimin of twenty lumbar spinal cord sections per animal were analysed and double-positive cells from each ventral horns were quantified.

With `NC(=O)C(c1ccccc1)(c1ccccc1)[C@@H]1CCN(CCc2ccc3c(c2)CCO3)C1` [darifenacin], the “α-MN count per ventral horn vs placebo” value is on record as “significantly higher”.
